Test results published in patent publication US20080063668A1, “Nitroimidazole and terconazole composition and method” (priority 2006, published 2008).

Assays:
Assay in all cases: Inhibition of bacteria growth, drug dilution tubes, anaerobic
Type in all cases: cell-based
Parameters in all cases: key: (+) for growth; (−) for no growth; (±) for suboptimal growth after an initial observation of growth
[1] = system: Gardnerella vaginalis ATCC 14018
Experimental: (§1) Serial dilutions of tinidazole and terconazole were prepared by adding measured amounts of each substance to water (both individually and in combination). Seven bacterial organisms that are common pathogens in bacterial vaginosis were grown anaerobically in the medium as listed in Table 4 under a N2/H2/CO2 (85:5:10) head space atmosphere. [table] These cultures were diluted to a 0.5 McFarland standard prior to inoculation of drug dilution tubes. One (1) mL of the 0.5 McFarland preparation was inoculated to an anaerobically prepared test tube containing 0.8 mL of Difco anaerobic medium (DAMM) and 0.2 mL of appropriate diluted antimicrobial or antimicrobial combination for a total of 2 mL. The inoculated tubes were then incubated at 37° C. and monitored daily for growth. Growth was scored with a (+) for growth, (−) for no growth, and (±) for suboptimal growth after an initial observation of growth. Tinidazole is abbreviated as TNZ and terconazole is abbreviated as TER in Tables 5 through 11.

[2] = system: Mobiluncus curtisii var. holmesii ATCC 35242
Experimental: as §1

[3] = system: Bacteroides fragilis ATCC 25285
Experimental: as §1

## CCS(=O)(=O)CCn1c([N+](=O)[O-])cnc1C [TNZ, 1-[2-(ethylsulfonyl)ethyl]-2-methyl-5-nitroimidazole]
[1]; TNZ 2 μg/ml, DAY 1
  growth: (+)
[1]; TNZ 2 μg/ml, DAY 2
  growth: (+)
[1]; TNZ 2 μg/ml, DAY 3
  growth: (+)
[1]; TNZ 2 μg/ml, DAY 4
  growth: (+)
[1]; TNZ 2 μg/ml, DAY 5
  growth: (+)
[1]; TNZ 3.9 μg/ml, DAY 1
  growth: (+)
[1]; TNZ 3.9 μg/ml, DAY 2
  growth: (+)
[1]; TNZ 3.9 μg/ml, DAY 3
  growth: (+)
[1]; TNZ 3.9 μg/ml, DAY 4
  growth: (+)
[1]; TNZ 3.9 μg/ml, DAY 5
  growth: (+)
[1]; TNZ 7.8 μg/ml, DAY 1
  growth: (−)
[1]; TNZ 7.8 μg/ml, DAY 2
  growth: (+)
[1]; TNZ 7.8 μg/ml, DAY 3
  growth: (+)
[1]; TNZ 7.8 μg/ml, DAY 4
  growth: (+)
[1]; TNZ 7.8 μg/ml, DAY 5
  growth: (+)
[1]; TNZ 15.6 μg/ml, DAY 1
  growth: (−)
[1]; TNZ 15.6 μg/ml, DAY 2
  growth: (+)
[1]; TNZ 15.6 μg/ml, DAY 3
  growth: (+)
[1]; TNZ 15.6 μg/ml, DAY 4
  growth: (+)
[1]; TNZ 15.6 μg/ml, DAY 5
  growth: (+)
[1]; TNZ 31.3 μg/ml, DAY 1
  growth: (−)
[1]; TNZ 31.3 μg/ml, DAY 2
  growth: (−)
[1]; TNZ 31.3 μg/ml, DAY 3
  growth: (−)
[1]; TNZ 31.3 μg/ml, DAY 4
  growth: (−)
[1]; TNZ 31.3 μg/ml, DAY 5
  growth: (−)
[1]; TNZ 62.5 μg/ml, DAY 1
  growth: (−)
[1]; TNZ 62.5 μg/ml, DAY 2
  growth: (−)
[1]; TNZ 62.5 μg/ml, DAY 3
  growth: (−)
[1]; TNZ 62.5 μg/ml, DAY 4
  growth: (−)
[1]; TNZ 62.5 μg/ml, DAY 5
  growth: (−)
[1]; TNZ 125 μg/ml, DAY 1
  growth: (−)
[1]; TNZ 125 μg/ml, DAY 2
  growth: (−)
[1]; TNZ 125 μg/ml, DAY 3
  growth: (−)
[1]; TNZ 125 μg/ml, DAY 4
  growth: (−)
[1]; TNZ 125 μg/ml, DAY 5
  growth: (−)
[1]; TNZ 250 μg/ml, DAY 1
  growth: (−)
[1]; TNZ 250 μg/ml, DAY 2
  growth: (−)
[1]; TNZ 250 μg/ml, DAY 3
  growth: (−)
[1]; TNZ 250 μg/ml, DAY 4
  growth: (−)
[1]; TNZ 250 μg/ml, DAY 5
  growth: (−)
[1]; TNZ 500 μg/ml, DAY 1
  growth: (−)
[1]; TNZ 500 μg/ml, DAY 2
  growth: (−)
[1]; TNZ 500 μg/ml, DAY 3
  growth: (−)
[1]; TNZ 500 μg/ml, DAY 4
  growth: (−)
[1]; TNZ 500 μg/ml, DAY 5
  growth: (−)
[2]; TNZ 2 μg/ml, DAY 1
  growth: (+)
[2]; TNZ 2 μg/ml, DAY 2
  growth: (+)
[2]; TNZ 2 μg/ml, DAY 3
  growth: (+)
[2]; TNZ 2 μg/ml, DAY 4
  growth: (+)
[2]; TNZ 2 μg/ml, DAY 5
  growth: (+)
[2]; TNZ 3.9 μg/ml, DAY 1
  growth: (+)
[2]; TNZ 3.9 μg/ml, DAY 2
  growth: (+)
[2]; TNZ 3.9 μg/ml, DAY 3
  growth: (+)
[2]; TNZ 3.9 μg/ml, DAY 4
  growth: (+)
[2]; TNZ 3.9 μg/ml, DAY 5
  growth: (+)
[2]; TNZ 7.8 μg/ml, DAY 1
  growth: (+)
[2]; TNZ 7.8 μg/ml, DAY 2
  growth: (+)
[2]; TNZ 7.8 μg/ml, DAY 3
  growth: (+)
[2]; TNZ 7.8 μg/ml, DAY 4
  growth: (+)
[2]; TNZ 7.8 μg/ml, DAY 5
  growth: (+)
[2]; TNZ 15.6 μg/ml, DAY 1
  growth: (+)
[2]; TNZ 15.6 μg/ml, DAY 2
  growth: (+)
[2]; TNZ 15.6 μg/ml, DAY 3
  growth: (+)
[2]; TNZ 15.6 μg/ml, DAY 4
  growth: (+)
[2]; TNZ 15.6 μg/ml, DAY 5
  growth: (+)
[2]; TNZ 31.3 μg/ml, DAY 1
  growth: (+)
[2]; TNZ 31.3 μg/ml, DAY 2
  growth: (+)
[2]; TNZ 31.3 μg/ml, DAY 3
  growth: (+)
[2]; TNZ 31.3 μg/ml, DAY 4
  growth: (+)
[2]; TNZ 31.3 μg/ml, DAY 5
  growth: (+)
[2]; TNZ 62.5 μg/ml, DAY 1
  growth: (+)
[2]; TNZ 62.5 μg/ml, DAY 2
  growth: (+)
[2]; TNZ 62.5 μg/ml, DAY 3
  growth: (+)
[2]; TNZ 62.5 μg/ml, DAY 4
  growth: (+)
[2]; TNZ 62.5 μg/ml, DAY 5
  growth: (+)
[2]; TNZ 125 μg/ml, DAY 1
  growth: (+)
[2]; TNZ 125 μg/ml, DAY 2
  growth: (+)
[2]; TNZ 125 μg/ml, DAY 3
  growth: (+)
[2]; TNZ 125 μg/ml, DAY 4
  growth: (+)
[2]; TNZ 125 μg/ml, DAY 5
  growth: (+)
[2]; TNZ 250 μg/ml, DAY 1
  growth: (+)
[2]; TNZ 250 μg/ml, DAY 2
  growth: (+)
[2]; TNZ 250 μg/ml, DAY 3
  growth: (+)
[2]; TNZ 250 μg/ml, DAY 4
  growth: (+)
[2]; TNZ 250 μg/ml, DAY 5
  growth: (+)
[2]; TNZ 500 μg/ml, DAY 1
  growth: (+)
[2]; TNZ 500 μg/ml, DAY 2
  growth: (+)
[2]; TNZ 500 μg/ml, DAY 3
  growth: (+)
[2]; TNZ 500 μg/ml, DAY 4
  growth: (+)
[2]; TNZ 500 μg/ml, DAY 5
  growth: (+)
[3]; TNZ 2 μg/ml, DAY 1
  growth: (−)
[3]; TNZ 2 μg/ml, DAY 2
  growth: (−)
[3]; TNZ 2 μg/ml, DAY 3
  growth: (−)
[3]; TNZ 2 μg/ml, DAY 4
  growth: (−)
[3]; TNZ 2 μg/ml, DAY 5
  growth: (+)
[3]; TNZ 3.9 μg/ml, DAY 1
  growth: (−)
[3]; TNZ 3.9 μg/ml, DAY 2
  growth: (−)
[3]; TNZ 3.9 μg/ml, DAY 3
  growth: (−)
[3]; TNZ 3.9 μg/ml, DAY 4
  growth: (−)
[3]; TNZ 3.9 μg/ml, DAY 5
  growth: (−)
[3]; TNZ 7.8 μg/ml, DAY 1
  growth: (−)
[3]; TNZ 7.8 μg/ml, DAY 2
  growth: (−)
[3]; TNZ 7.8 μg/ml, DAY 3
  growth: (−)
[3]; TNZ 7.8 μg/ml, DAY 4
  growth: (−)
[3]; TNZ 7.8 μg/ml, DAY 5
  growth: (−)
[3]; TNZ 15.6 μg/ml, DAY 1
  growth: (−)
[3]; TNZ 15.6 μg/ml, DAY 2
  growth: (−)
[3]; TNZ 15.6 μg/ml, DAY 3
  growth: (−)
[3]; TNZ 15.6 μg/ml, DAY 4
  growth: (−)
[3]; TNZ 15.6 μg/ml, DAY 5
  growth: (−)
[3]; TNZ 31.3 μg/ml, DAY 1
  growth: (−)
[3]; TNZ 31.3 μg/ml, DAY 2
  growth: (−)
[3]; TNZ 31.3 μg/ml, DAY 3
  growth: (−)
[3]; TNZ 31.3 μg/ml, DAY 4
  growth: (−)
[3]; TNZ 31.3 μg/ml, DAY 5
  growth: (−)
[3]; TNZ 62.5 μg/ml, DAY 1
  growth: (−)
[3]; TNZ 62.5 μg/ml, DAY 2
  growth: (−)
[3]; TNZ 62.5 μg/ml, DAY 3
  growth: (−)
[3]; TNZ 62.5 μg/ml, DAY 4
  growth: (−)
[3]; TNZ 62.5 μg/ml, DAY 5
  growth: (−)
[3]; TNZ 125 μg/ml, DAY 1
  growth: (−)
[3]; TNZ 125 μg/ml, DAY 2
  growth: (−)
[3]; TNZ 125 μg/ml, DAY 3
  growth: (−)
[3]; TNZ 125 μg/ml, DAY 4
  growth: (−)
[3]; TNZ 125 μg/ml, DAY 5
  growth: (−)
[3]; TNZ 250 μg/ml, DAY 1
  growth: (−)
[3]; TNZ 250 μg/ml, DAY 2
  growth: (−)
[3]; TNZ 250 μg/ml, DAY 3
  growth: (−)
[3]; TNZ 250 μg/ml, DAY 4
  growth: (−)
[3]; TNZ 250 μg/ml, DAY 5
  growth: (−)
[3]; TNZ 500 μg/ml, DAY 1
  growth: (−)
[3]; TNZ 500 μg/ml, DAY 2
  growth: (−)
[3]; TNZ 500 μg/ml, DAY 3
  growth: (−)
[3]; TNZ 500 μg/ml, DAY 4
  growth: (−)
[3]; TNZ 500 μg/ml, DAY 5
  growth: (−)
